Assay results taken from patent US11234979B2, “Heteroaryl compounds as muscarinic M1 receptor positive allosteric modulators” (SUVEN LIFE SCIENCES LIMITED, priority 2017, dated 2022).

Assays:
[1] = target: T1, recombinant human Muscarinic M1 receptor (Homo sapiens, UniProt P11229); assay: Allosteric potency EC50 for Muscarinic M1 receptor, CHO pCRE-Luc reporter assay with EC20 of acetylcholine; format: cell-based; settings: CHO cells, in presence of EC20 of acetylcholine, 4 hours
T1 construct: expressed in transfected cells
T1 sequence (P11229 1-460): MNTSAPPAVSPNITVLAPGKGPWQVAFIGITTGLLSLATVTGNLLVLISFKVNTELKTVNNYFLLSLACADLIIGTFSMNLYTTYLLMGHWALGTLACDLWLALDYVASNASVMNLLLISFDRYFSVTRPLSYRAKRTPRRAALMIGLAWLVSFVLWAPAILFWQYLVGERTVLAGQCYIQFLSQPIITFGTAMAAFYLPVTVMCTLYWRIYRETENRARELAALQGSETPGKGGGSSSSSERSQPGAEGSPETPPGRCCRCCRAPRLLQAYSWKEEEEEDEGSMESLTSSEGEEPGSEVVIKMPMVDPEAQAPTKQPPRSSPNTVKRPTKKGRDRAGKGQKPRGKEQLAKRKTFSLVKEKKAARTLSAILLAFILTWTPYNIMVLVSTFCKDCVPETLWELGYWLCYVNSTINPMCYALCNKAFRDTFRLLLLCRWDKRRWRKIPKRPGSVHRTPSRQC
Protocol: Determination of Allosteric Potency EC50 Values for Muscarinic M1 Receptor:
A stable CHO cell line expressing recombinant human Muscarinic M1 receptor and pCRE-Luc reporter system was used for cell-based assay. The assay offers a non-radioactive based approach to determine binding of a compound to GPCRs. In this specific assay, the level of intracellular cyclic AMP which is modulated by activation or inhibition of the receptor is measured. The recombinant cells harbor luciferase reporter gene under the control of cAMP response element.
The above cells were grown in 96 well clear bottom white plates in Hams F12 medium containing 10% fetal bovine serum (FBS). Prior to the addition of compounds or standard agonist, cells were serum starved overnight. Increasing concentrations of test compounds were added along with EC20 of acetylcholine in OptiMEM medium to the cells. The incubation was continued at 37° C. in CO2 incubator for 4 hours. Medium was removed and cells were washed with phosphate buffered saline. The cells were lysed and luciferase activity was measured in a Luminometer. Luminescence counts in each concentrations of test item were normalized to the acetylcholine induced maximum response and the data was analyzed using Graphpad software. EC50 values of the compounds were defined as the concentration required in stimulating the luciferase activity by 50% in presence of EC20 of acetylcholine.

[2] = Rodent pharmacokinetic study; format: in vivo, Male Wistar rats; settings: male, Wistar, rat, plasma; for bioavailability: oral 3 mg/kg vs i.v. 1 mg/kg
Protocol: Rodent Pharmacokinetic Study
Male Wistar rats (260±50 grams) were used as experimental animals. Animals were housed individually in polypropylene cage. Two days prior to study, male Wistar rats were anesthetized with isoflurane for surgical placement of jugular vein catheter. Rats were randomly divided for oral (3 mg/kg) and intravenous (i.v) (1 mg/kg) dosing (n=3/group) and fasted overnight before oral dosing (p.o.). However, rats allocated to intravenous (i.v.) dosing food and water was provided ad libitum.
At pre-determined point, blood was collected through jugular vein and replenished with an equivalent volume of normal saline. Collected blood was transferred into a labeled eppendorf tube containing 10 μL of heparin as an anticoagulant. Typically blood samples were collected at following time points: 0.08, 0.25, 0.5, 1, 2, 4, 6, 8, and 24 hours post dose. Blood was centrifuged at 4000 rpm for 10 minutes. Plasma was separated and stored frozen at −80° C. until analysis. The concentrations of the test compounds were quantified in plasma by qualified LC-MS/MS method using suitable extraction technique. The test compounds were quantified in the calibration range around 1-1000 ng/mL in plasma. Study samples were analyzed using calibration samples in the batch and quality control samples spread across the batch.
Pharmacokinetic parameters Cmax, AUCt, T1/2, clearance and bioavailability (F) were calculated by non-compartmental model using standard non-compartmental model by using Phoenix WinNonlin 6.0.2 or 6.0.3 version Software package.

[3] = Rodent brain penetration study; format: in vivo, Male Wistar rats; settings: male, Wistar, brain and plasma, po; rat, 3 mg/kg, p.o. @ 1.0 hr, brain-plasma ratio; read-out: Single dose Rat Brain Penetration (Cb/Cp)
Protocol: Rodent Brain Penetration Study
Male Wistar rats (260±40 grams) were used as experimental animals. Three animals were housed in each cage. Animals were given water and food ad libitum throughout the experiment and maintained on a 12 hours light/dark cycle.
Brain penetration was determined in discrete manner in rats. One day prior to dosing day, male Wistar rats were acclimatized and randomly grouped according to their weight. At each time point (0.5, 1 and 2 hours) n=3 animals were used.
The test compounds were suitably preformulated and administered orally at (free base equivalent) 3 mg/kg. Blood samples were removed via cardiac puncture by using isoflurane anesthesia. The animals were sacrificed to collect brain tissue. Plasma was separated and brain samples were homogenized and stored frozen at −20° C. until analysis. The concentrations of the test compounds in plasma and brain were determined using LC-MS/MS method.
The test compounds were quantified in plasma and brain homogenate by qualified LC-MS/MS method using suitable extraction technique. The test compounds were quantified in the calibration range of 1-500 ng/mL in plasma and brain homogenate. Study samples were analyzed using calibration samples in the batch and quality control samples spread across the batch.

[4] = test system: Male Wistar rats; assay: Object recognition task model; format: in vivo; settings: rat, p.o.; for Exploration time mean ± S.E.M, Familiar object / Exploration time mean ± S.E.M, Novel object: choice trial T2, 24 hours after T1
Protocol: Object Recognition Task Model
The cognition enhancing properties of compounds of this invention were estimated by using this model.
Male Wistar rats (8-10 weeks old) were used as experimental animals. Four animals were housed in each cage. Animals were kept on 20% food deprivation from a day prior to experimentation. Water was provided ad libitum throughout the experiment. Animals were maintained on a 12 hours light/dark cycle in temperature and humidity controlled room. The experiment was carried out in a circular or square arena made up of acrylic. Rats were habituated to individual arenas for up to 1 hour in the absence of any objects on day 1.
One group of 12 rats received vehicle and another set of animals received compound of the formula (I), before the familiar (T1) and choice (T2) trials. During the familiarization phase, (T1), the rats were placed individually in the arena for 3 minutes, in which two identical objects (a1 and a2) were positioned 10 cm from the wall. 24 hours after T1, trial for long-term memory test was performed. The same rats were placed in the same arena as they were placed in T1 trial. During the choice phase (T2) rats were allowed to explore the arena for 3 minutes in presence of a copy of familiar object (a3) and one novel object (b). During the T1 and T2 trial, explorations of each object (defined as sniffing, licking, chewing or having moving vibrissae whilst directing the nose towards the object at a distance of less than 1 cm) were recorded using stopwatch.
T1 is the total time spent exploring the familiar objects (a1+a2).
T2 is the total time spent exploring the familiar object and novel object (a3+b).
The object recognition test was performed as described by Ennaceur, A., Delacour, J., 1988, A new one-trial test for neurobiological studies of memory in rats˜Behavioural data, Behav. Brain Res., 31, 47-59.

Row | Structure (SMILES) | EC50 [1] | AUC(0-t) ([2]; iv, i.v. 1 mg/kg) | half-life ([2]; iv, i.v. 1 mg/kg) | clearance ([2]; iv, i.v. 1 mg/kg) | bioavailability [2] | AUC(0-t) ([2]; oral 3 mg/kg) | Cmax ([2]; oral 3 mg/kg) | half-life ([2]; oral 3 mg/kg) | Kp at 1 h [3] | Inference ([4]; 1 mg/kg) | Exploration time mean ± S.E.M, Familiar object ([4]; 1 mg/kg) | Exploration time mean ± S.E.M, Novel object ([4]; 1 mg/kg) | Inference ([4]; 0.3 mg/kg) | Exploration time mean ± S.E.M, Familiar object ([4]; 0.3 mg/kg) | Exploration time mean ± S.E.M, Novel object ([4]; 0.3 mg/kg)
1 | COc1ccc(Cc2cc(C(=O)N[C@H]3CCCC[C@@H]3O)n3ncccc23)cc1 [Example 20, N-(cis-1S,2S-2-Hydroxycyclohexyl)-5-(4-methoxybenzyl)-pyrrolo[1,2-b]pyridazine-7-carboxamide] | 1.34 µM | 1.38 ± 0.39 µg·h/mL | 2.7 ± 0.8 h | 0.732 ± 0.186 L/h/kg | 39 ± 3% | 1.61 ± 0.139 µg·h/mL | 0.402 ± 0.098 µg/mL | 3.4 ± 0.7 h | 1.52 ± 0.15 | Active | 10.31 ± 1.07 s | 14.92 ± 1.11 s |  |  | 
2 | Cn1cc(-c2ccc(Cc3cc(C(=O)N[C@H]4CCCC[C@@H]4O)n4ncccc34)c(F)c2)cn1 [Example 34, N-(cis-1S,2S-2-Hydroxycyclohexyl)-5-[2-fluoro-4-(1-methyl-1H-pyrazol-4-yl)-benzyl]-pyrrolo[1,2-b]pyridazine-7-carboxamide] | 0.989 µM | 3.23 ± 0.625 µg·h/mL | 3.7 ± 0.3 h | 0.3 ± 0.042 L/h/kg | 66 ± 3% | 6.39 ± 0.312 µg·h/mL | 0.793 ± 0.086 µg/mL | 4.4 ± 2.3 h | 0.13 ± 0.02 |  |  |  | Active | 10.35 ± 1.75 s | 15.63 ± 3.23 s
